Legend:
wild-type mice = assay: Alu RNA- or pAlu-induced RPE degeneration after subretinal injection (fundus photographs, ZO-1 flat mounts); format: in vivo; details: subretinal pAlu, test agent intravitreous
Description: Subretinal injection and imaging. Subretinal injections (1 μL) in mice were performed using a Pico-Injector (PLI-100, Harvard Apparatus). In vivo transfection of plasmids was achieved using 10% Neuroporter (Genlantis). Fundus imaging was performed on a TRC-50 IX camera (Topcon) linked to a digital imaging system (Sony). Immunolabeling of RPE flat mounts was performed using antibodies against human zonula occludens-1 (Invitrogen).
Fundus photography. Retinal photographs of dilated mouse eyes were taken with a TRC-50 IX camera (Topcon) linked to a digital imaging system (Sony).
Immunolabeling. Human eyes fixed in 2-4% paraformaldehyde were prepared as eyecups, cryoprotected in 30% sucrose, embedded in optimal cutting temperature compound (Tissue-Tek OCT; Sakura Finetek), and cryosectioned into 10 μm sections. Depigmentation was achieved using 0.25% potassium permanganate and 0.1% oxalic acid. Immunohistochemical staining was performed with the rabbit antibody against NLRP3 (1:100, Sigma Aldrich) or rabbit antibody against Caspase-1 (prediluted, AbCam). Isotype IgG was substituted for the primary antibody to assess the specificity of the staining. Bound antibody was detected with biotin-conjugated secondary antibodies, followed by incubation with ABC reagent and visualized by Vector Blue (Vector Laboratories). Levamisole (Vector Laboratories) was used to block endogenous alkaline phosphatase activity. Slides were washed in PBS, counterstained with neutral red (Fisher Scientific), rinsed with deionized water, air dried, and then mounted in Vectamount (Vector Laboratories). Fluorescent labeling of human tissue was performed with the rabbit antibody against PYCARD (1:50, Clone N-15, Santa Cruz Biotechnology). Immunolabeling was visualized by fluorescently conjugated anti-rabbit secondary antibody (Invitrogen). Tissue autofluorescence was quenched by incubating the sections in 0.3% Sudan black (Fisher Scientific). Sections were mounted in Vectashield with DAPI (Vector Laboratories). Mouse RPE/choroid flat mounts were fixed with 4% paraformaldehyde or 100% methanol, stained with rabbit antibodies against human zonula occludens-1 (1:100, Invitrogen) and visualized with Alexa594 (Invitrogen). All images were obtained using the Leica SP-5 or Zeiss Axio Observer Z1 microscopes.
Subretinal injection. Subretinal injections (1 μL) in mice were performed using a Pico-Injector (PLI-100, Harvard Apparatus). In vivo transfection of plasmids coding for two different Alu sequences (pAlu) or empty control vector (pNull) (Bennett et al., 2008; Kaneko et al., 2011; Shaikh et al., 1997) was achieved using 10% Neuroporter (Genlantis). AAV1-BEST1-Cre (Alexander and Hauswirth, 2008) or AAV1-BEST1-GFP were injected at […] pfu/mL and in vitro transcribed Alu RNA was injected at 0.3 mg/mL.
Drug treatments. siRNAs formulated in siRNA buffer (20 mM KCL, 0.2 mM MgCl2 in HEPES buffer at pH 7.5; Dharmacon) or phosphate buffered saline (PBS; Sigma-Aldrich); the TLR4 antagonist Ultra Pure Rhodobacter sphaeroides LPS (LPS-RS, InvivoGen), a peptide inhibitor of MyD88 homodimerization IMG-2005 (IMGENEX), control inhibitor (IMGENEX), recombinant IL-18 (Medical & Biological Laboratories), neutralizing rat antibodies against mouse IL-1β (IMGENEX), neutralizing rat antibodies against mouse IL-18 (Medical & Biological Laboratories), isotype control IgGs (R&D Systems or eBioscience as appropriate), Caspase-1 inhibitor Z-WEHD-FMK (R&D Systems), Caspase-3 inhibitor Z-DEVD-FMK (R&D Systems), Caspase control inhibitor Z-FA-FMK (R&D Systems), (2R,4R)-APDC (Enzo Life Sciences), Glipizide (Sigma-Aldrich), Glyburide (Sigma-Aldrich), and P2X7 receptor antagonist A438079 (Tocris Bioscience) were dissolved in phosphate buffered saline (PBS; Sigma-Aldrich) or dimethyl sulfoxide (DMSO; Sigma-Aldrich), and injected into the vitreous humor in a total volume of 1 μL with a 33-gauge Exmire microsyringe (Ito Corporation). […]

NLRP3 = NLRP3 mRNA by real-time RT-PCR in human RPE cells; format: cell-based
Text: mRNA abundance. Transcript abundance was quantified by real-time RT-PCR using an Applied Biosystems 7900 HT Fast Real-Time PCR system using the 2^−ΔΔct method.
Real-time PCR. Total RNA was extracted from tissues or cells using Trizol reagent (Invitrogen) according to manufacturer's recommendations, DNase treated and reverse transcribed (QuantiTect, Qiagen). The RT products (cDNA) were amplified by real-time quantitative PCR (Applied Biosystems 7900 HT Fast Real-Time PCR system) with Power SYBR green Master Mix. Oligonucleotide primers specific for human IL1B, human NLRP3, human 18S rRNA, mouse Myd88, mouse Nlrp3, mouse 1118, and mouse 18S rRNA were used. The QPCR cycling conditions were 50° C. for 2 min, 95° C. for 10 min followed by 40 cycles of a two-step amplification program (95° C. for 15 s and 58° C. for 1 min). At the end of the amplification, melting curve analysis was applied using the dissociation protocol from the Sequence Detection system to exclude contamination with unspecific PCR products. […] For negative controls, no RT products were used as templates in the QPCR and verified by the absence of gel-detected bands. Relative expressions of target genes were determined by the 2^−ΔΔct method.

IL18 = IL18 mRNA by real-time RT-PCR in human RPE cells; format: cell-based

N[C@@]1(C(=O)O)CN[C@@H](C(=O)O)C1 [APDC, (2R,4R)-APDC]
blocked: pAlu-induced RPE degeneration (wild-type mice) | pAlu-induced NLRP3 mRNA upregulation (NLRP3) | pAlu-induced IL18 mRNA upregulation (IL18)

From US11730743B2, “Protection of cells from degeneration and treatment of geographic atrophy” (University of Kentucky Research Foundation, priority 2012, dated 2023)
